Patent US7928119B2, “Use of EP4 receptor ligands in the treatment of IL-6 involved diseases” (Pfizer Inc., priority 2002, dated 2011)
pIC50: −log10 of the molar value.

System: human PBMC
Test: PGE2 stimulation of IL-6 secretion in ConA-treated human PBMC and its inhibition by EP4 antagonists (ELISA)
Assay type: cell-based
Conditions: ConA-treated PBMC, 50 μM compound, PGE2 10-1000 nM, 24 hr
Protocol: PBMC were stimulated with 5 μg/ml of Con A alone or with 10 nM to 1000 nM PGE2 at 37° C. for 24 hr. The secreted IL-6 in culture medium was measured by ELISA. Data are expressed as mean±s.d. (FIG. 1)
The PGE2 concentration-dependence of stimulation of IL-6 secretion by human PBMC without and with ConA-stimulation, and the inhibitory effect of Compound A. PBMC were stimulated with 5 μg/ml of Concanavalin A alone or with 10 nM to 1000 nM PGE2 at 37° C. in 5% CO2 for 24 hr. To see the effect of Compound A, 50 μM of Compound A was added simultaneously with ConA and PGE2, and incubated for 24 hr. Data in parenthesis are expressed % control of mitocondorial dehydrogenase activity. (FIG. 2)
Compound A and Compound B inhibited the IL-6 secretion in ConA-treated PBMC. (FIG. 3.) PBMC were incubated with 5 μg/ml of Con A, 100 nM PGE2 and various doses of EP4 antagonists at 37° C. for 24 hr. The secreted IL-6 in culture medium was measured by ELISA. Data are expressed as mean±s.d.
For `CCc1nc2c(C)cc(C)nc2n1-c1ccc(CCNC(=O)NS(=O)(=O)c2ccc(C)cc2)cc1` [Compound A, N-[({2-[4-(2-ethyl-5,7-dimethyl-3H-imidazo[4,5-b]pyridin-3-yl)phenyl]ethyl}amino)carbonyl]-4-methylbenzenesulfonamide], the “IL-6 production enhanced by PGE2” value was “significantly inhibited”.

Same assay, conditions: Homo sapiens; PBMC stimulated with 5 μg/ml ConA and 100 nM PGE2 for 24 hr; read-out: IC50 of inhibition of IL-6 production
`CCc1nc2c(C)cc(C)nc2n1-c1ccc(CCNC(=O)NS(=O)(=O)c2ccc(C)cc2)cc1` [Compound A, N-[({2-[4-(2-ethyl-5,7-dimethyl-3H-imidazo[4,5-b]pyridin-3-yl)phenyl]ethyl}amino)carbonyl]-4-methylbenzenesulfonamide] gave a pIC50 of 7.89.

Same assay, conditions: PBMC, 5 μg/ml ConA, 24 hr, without PGE2
In the case of Concanavalin A [ConA], the “secretion of IL-6” value was “enhanced”.

System: not given
Test: not given
Conditions: not given
`CCc1nc2c(C)cc(C)nc2n1-c1ccc(CCNC(=O)NS(=O)(=O)c2cc3ccccc3s2)cc1` showed a melting point of 128 to 130 °C. `CC(=O)c1nc2cc(C(F)(F)F)c(Cl)cc2n1-c1ccc(CCNC(=O)NS(=O)(=O)c2ccc(C)cc2)cc1` [Example 368, N-{[(2-{4-[2-ACETYL-6-CHLORO-5-(TRIFLUOROMETHYL)-1H-BENZIMIDAZOL-1-YL]PHENYL}ETHYL)AMINO]CARBONYL}-4-METHYLBENZENESULFONAMIDE] gave a melting point of 225 °C. For `CCc1nc2c(Cl)nc(C)cc2n1-c1ccc(CCNC(=O)NS(=O)(=O)c2ccc(C)cc2)cc1`, the melting point was 163 °C. `CCc1nc2cc(C(C)O)ccc2n1-c1ccc(CCNC(=O)NS(=O)(=O)c2ccc(C)cc2)cc1` (stereo not shown) [Example 345, N-{[(2-{4-[2-ETHYL-5-(1-HYDROXYETHYL)-1H -BENZIMIDAZOL-1-YL]PHENYL}ETHYL)AMINO]CARBONYL}-4-METHYLBENZENESULFONAMIDE] gave a melting point of 190 °C. `CCc1nc2c(C)cc(C)nc2n1-c1ccc(CC(C)NC(=O)NS(=O)(=O)c2ccc(C)cc2)cc1` (stereo not shown) showed a melting point of 128 °C. For `CCc1nc2cc(C(F)(F)F)c(Cl)cc2n1-c1ccc(CCOC(=O)NS(=O)(=O)c2cn(C)c(C)n2)cc1` [Example 294, 2-{4-[6-CHLORO-2-ETHYL-5-(TRIFLUOROMETHYL)-1H-BENZIMIDAZOL-1-YL]PHENYL}ETHYL-(1,2-DIMETHYL-1H-IMIDAZOL-4-YL)SULFONYLCARBAMATE], the melting point was 221.2 °C. `CCc1nc2cc(NS(C)(=O)=O)c(Cl)cc2n1-c1ccc(CCNC(=O)NS(=O)(=O)c2ccc(C)cc2)cc1` showed a melting point of 101 to 123 °C. For `CCc1nc2cc(Cl)c(Cl)nc2n1-c1ccc(CCNC(=O)NS(=O)(=O)c2ccc(C)cc2)cc1`, the melting point was 188 to 189 °C. `CCc1nc2cc(C(F)(F)F)c(Cl)cc2n1-c1ccc(CCOC(=O)NS(=O)(=O)c2ccccn2)cc1` gave a melting point of 127 to 130 °C. Compound `CCc1nc2cc(C(=O)NC)c(Cl)cc2n1-c1ccc(CCNC(=O)NS(=O)(=O)c2ccc(C)cc2)cc1` [Example 333, 6-CHLORO-2-ETHYL-N-METHYL-1-(4-{2-[({[(4-METHYLPHENYL)SULFONYL]AMINO}CARBONYL)AMINO]ETHYL}PHENYL)-1H-BENZIMIDAZOLE-5-CARBOXAMIDE] has a melting point of 122 to 135 °C. Compound `CCc1nc2c(C)c(C#N)c(C)cc2n1-c1ccc(CCNC(=O)NS(=O)(=O)c2ccc(C)cc2)cc1` has a melting point of 140 to 145 °C. Work on `CCc1nc2cc(S(N)(=O)=O)c(Cl)cc2n1-c1ccc(CCNC(=O)NS(=O)(=O)c2ccc(C)cc2)cc1` yielded a melting point of 163 to 170 °C. `CCc1nc2c(C(N)=O)cccc2n1-c1ccc(CCNC(=O)NS(=O)(=O)c2ccc(C)cc2)cc1` showed a melting point of 208 to 214 °C. `CCc1nc2c(C)cc(C)nc2n1-c1ccc(CCNC(=O)NS(=O)(=O)c2ccncc2)cc1` [Example 274, 2-ETHYL-3-(4-{2-[({[4-PYRIDINYLSULFONYL]AMINO}CARBONYL)AMINO]ETHYL}PHENYL)-5,7-DIMETHYL-3H-IMIDAZO[4,5-b]PYRIDINE] gave a melting point of 227.9 to 228.7 °C. For `CCc1nc2cc(C)c(Cl)nc2n1-c1ccc(CCNC(=O)NS(=O)(=O)c2ccc(C)cc2)cc1` [Example 38, 5-CHLORO-2-ETHYL-6-METHYL-3-(4-{2-[({[(4-METHYLPHENYL)SULFONYL]AMINO}CARBONYL)AMINO]ETHYL}PHENYL)-3H-IMIDAZO[4,5-b]PYRIDINE], the melting point was 205 to 206 °C. `CCc1nc2cc(NC)c(Cl)cc2n1-c1ccc(CCNC(=O)NS(=O)(=O)c2ccc(C)cc2)cc1` gave a melting point of 95 to 100 °C. Compound `CCc1nc2cc(COC)c(Cl)cc2n1-c1ccc(CCNC(=O)NS(=O)(=O)c2ccc(C)cc2)cc1` [Example 338, N-({[2-(4-{6-CHLORO-2-ETHYL-5-[(METHYLOXY)METHYL]-1H-BENZIMIDAZOL-1-YL}PHENYL)ETHYL]AMINO}CARBONYL)-4-METHYLBENZENSULFONAMIDE] has a melting point of 134.6 °C. `CCc1nc2cc(C(F)(F)F)c(Cl)cc2n1-c1ccc(CCN(C(=O)O)S(=O)(=O)c2ccc(C)cn2)cc1.Cl.Cl` showed a melting point of 200.2 °C. `CCc1nc2cc(C(N)=O)c(Cl)cc2n1-c1ccc(CCNC(=O)NS(=O)(=O)c2ccc(C)cc2)cc1` showed a melting point of 152 to 163 °C. Work on `CCc1nc2c(C#N)cccc2n1-c1ccc(CCNC(=O)NS(=O)(=O)c2ccc(C)cc2)cc1` [Example 321, 4-CYANO-2-ETHYL-1-(4-{2-[({[(4-METHYLPHENYL)SULFONYL]AMINO}CARBONYL)AMINO]ETHYL}PHENYL)-1H-BENZIMIDAZOLE] yielded a melting point of 95 to 103 °C. `CCc1nc2cc(C(F)(F)F)c(Cl)cc2n1-c1ccc(CCOC(=O)NS(=O)(=O)c2cccc3c(N(C)C)cccc23)cc1` gave a melting point of 203.4 °C. For `CCc1nc2cc(N(C)C)c(Cl)cc2n1-c1ccc(CCNC(=O)NS(=O)(=O)c2ccc(C)cc2)cc1`, the melting point was 108 to 114 °C. In the case of `CCc1nc2cc(C(F)(F)F)c(Cl)cc2n1-c1ccc(C[C@H](C)NC(=O)NS(=O)(=O)c2ccc(C)cc2)cc1` [Example 254, N-{[((1S)-2-{4-[6-CHLORO-2-ETHYL-5-(TRIFLUOROMETHYL)-1H-BENZIMIDAZOL-1-YL]PHENYL}-1-METHYLETHYL)AMINO]CARBONYL}-4-METHYLBENZENESULFONAMIDE], the melting point was 141 to 143 °C. Compound `CCc1nc2cc(C(F)(F)F)c(Cl)cc2n1-c1ccc(CCOC(=O)NS(=O)(=O)c2cn(C)cn2)cc1` [Example 292, 2-{4-[6-CHLORO-2-ETHYL-5-(TRIFLUOROMETHYL)-1H-BENZIMIDAZOL-1-YL]PHENYL}ETHYL-(1-METHYL-1H-IMIDAZOL-4-YL)SULFONYLCARBAMATE] has a melting point of 204.3 °C. For `CCc1nc2c(C)c(C#N)c(C)nc2n1-c1ccc(CCNC(=O)NS(=O)(=O)c2ccc(C)cc2)cc1` [Example 41, 6-CYANO-2-ETHYL-5,7-DIMETHYL-3-(4-{2-[({[(4-METHYLPHENYL)SULFONYL]AMINO}CARBONYL)AMINO]ETHYL}PHENYL)-3H-IMIDAZO[4,5-b]PYRIDINE], the melting point was 133 °C. With `CCc1nc2cc(NC(C)=O)c(Cl)cc2n1-c1ccc(CCNC(=O)NS(=O)(=O)c2ccc(C)cc2)cc1` the melting point was 125 to 133 °C. For `CCc1nc2cc(C(F)(F)F)c(Cl)cc2n1-c1ccc(C[C@@H](C)NC(=O)NS(=O)(=O)c2ccc(C)cc2)cc1` [Example 255, N-{[((1R)-2-{4-[6-CHLORO-2-ETHYL-5-(TRIFLUOROMETHYL)-1H-BENZIMIDAZOL-1-YL]PHENYL}-1-METHYLETHYL)AMINO]CARBONYL}-4-METHYLBENZENESULFONAMIDE], the melting point was 138 to 141 °C. For `CCc1nc2cc(S(C)(=O)=O)c(Cl)cc2n1-c1ccc(CCNC(=O)NS(=O)(=O)c2ccc(C)cc2)cc1`, the melting point was 105 to 118 °C. Work on `CCc1nc2c(C)c(NS(C)(=O)=O)cnc2n1-c1ccc(CCNC(=O)NS(=O)(=O)c2ccc(C)cc2)cc1` yielded a melting point of 166 °C. With `CCc1nc2cc(C(=O)O)c(Cl)cc2n1-c1ccc(CCNC(=O)NS(=O)(=O)c2ccc(C)cc2)cc1` [Example 112, 6-CHLORO-2-ETHYL-1-(4-{2-[({[(4-METHYLPHENYL)SULFONYL]AMINO}CARBONYL)AMINO]ETHYL}PHENYL)-1H-BENZIMIDAZOLE-5-CARBOXYLIC ACID] the melting point was 145 to 150 °C. For `Cc1ccc(S(=O)(=O)NC(=O)NCCc2ccc(-n3c(C(C)O)nc4cc(C(F)(F)F)c(Cl)cc43)cc2)cc1` (stereo not shown) [Example 367, N-{[(2-{4-[6-CHLORO-2-(1-HYDROXYETHYL)-5-(TRIFLUOROMETHYL)-1H-BENZIMIDAZOL-1-YL]PHENYL}ETHYL)AMINO]CARBONYL}-4-METHYLBENZENESULFONAMIDE], the melting point was 220 °C.
